The record followed here is article doi:10.1101/2023.11.24.568596v1 (biorxiv, 2023).

Each structure is given as a SMILES string.

Among the targets are AAK1 (Homo sapiens, UniProt Q2M2I8); MST3 (Homo sapiens, UniProt Q9Y6E0); EphA4 (Homo sapiens, UniProt P54764); CK1e (Homo sapiens, UniProt P49674); Erk2 (Homo sapiens, UniProt P28482).
Conditions in all cases: binder
In a further test the target is T1, MST2 (Homo sapiens, UniProt Q13188).
T1 sequence (Q13188 1-491): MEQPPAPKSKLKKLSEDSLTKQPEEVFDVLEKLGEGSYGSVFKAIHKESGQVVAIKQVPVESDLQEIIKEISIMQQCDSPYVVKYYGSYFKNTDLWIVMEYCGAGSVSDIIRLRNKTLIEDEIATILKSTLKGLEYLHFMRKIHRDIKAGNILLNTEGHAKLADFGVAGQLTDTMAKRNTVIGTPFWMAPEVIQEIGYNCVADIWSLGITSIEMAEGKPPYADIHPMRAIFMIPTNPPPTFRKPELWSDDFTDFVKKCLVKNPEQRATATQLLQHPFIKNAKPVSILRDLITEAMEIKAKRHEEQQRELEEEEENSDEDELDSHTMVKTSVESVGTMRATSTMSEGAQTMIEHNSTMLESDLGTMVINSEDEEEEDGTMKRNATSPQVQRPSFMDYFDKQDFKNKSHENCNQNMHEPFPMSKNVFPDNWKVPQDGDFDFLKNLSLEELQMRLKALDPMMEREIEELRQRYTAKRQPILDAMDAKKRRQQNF

The next test deals with T2, MAP3K5 (Homo sapiens, UniProt Q99683).
T2 sequence (Q99683 1-1374): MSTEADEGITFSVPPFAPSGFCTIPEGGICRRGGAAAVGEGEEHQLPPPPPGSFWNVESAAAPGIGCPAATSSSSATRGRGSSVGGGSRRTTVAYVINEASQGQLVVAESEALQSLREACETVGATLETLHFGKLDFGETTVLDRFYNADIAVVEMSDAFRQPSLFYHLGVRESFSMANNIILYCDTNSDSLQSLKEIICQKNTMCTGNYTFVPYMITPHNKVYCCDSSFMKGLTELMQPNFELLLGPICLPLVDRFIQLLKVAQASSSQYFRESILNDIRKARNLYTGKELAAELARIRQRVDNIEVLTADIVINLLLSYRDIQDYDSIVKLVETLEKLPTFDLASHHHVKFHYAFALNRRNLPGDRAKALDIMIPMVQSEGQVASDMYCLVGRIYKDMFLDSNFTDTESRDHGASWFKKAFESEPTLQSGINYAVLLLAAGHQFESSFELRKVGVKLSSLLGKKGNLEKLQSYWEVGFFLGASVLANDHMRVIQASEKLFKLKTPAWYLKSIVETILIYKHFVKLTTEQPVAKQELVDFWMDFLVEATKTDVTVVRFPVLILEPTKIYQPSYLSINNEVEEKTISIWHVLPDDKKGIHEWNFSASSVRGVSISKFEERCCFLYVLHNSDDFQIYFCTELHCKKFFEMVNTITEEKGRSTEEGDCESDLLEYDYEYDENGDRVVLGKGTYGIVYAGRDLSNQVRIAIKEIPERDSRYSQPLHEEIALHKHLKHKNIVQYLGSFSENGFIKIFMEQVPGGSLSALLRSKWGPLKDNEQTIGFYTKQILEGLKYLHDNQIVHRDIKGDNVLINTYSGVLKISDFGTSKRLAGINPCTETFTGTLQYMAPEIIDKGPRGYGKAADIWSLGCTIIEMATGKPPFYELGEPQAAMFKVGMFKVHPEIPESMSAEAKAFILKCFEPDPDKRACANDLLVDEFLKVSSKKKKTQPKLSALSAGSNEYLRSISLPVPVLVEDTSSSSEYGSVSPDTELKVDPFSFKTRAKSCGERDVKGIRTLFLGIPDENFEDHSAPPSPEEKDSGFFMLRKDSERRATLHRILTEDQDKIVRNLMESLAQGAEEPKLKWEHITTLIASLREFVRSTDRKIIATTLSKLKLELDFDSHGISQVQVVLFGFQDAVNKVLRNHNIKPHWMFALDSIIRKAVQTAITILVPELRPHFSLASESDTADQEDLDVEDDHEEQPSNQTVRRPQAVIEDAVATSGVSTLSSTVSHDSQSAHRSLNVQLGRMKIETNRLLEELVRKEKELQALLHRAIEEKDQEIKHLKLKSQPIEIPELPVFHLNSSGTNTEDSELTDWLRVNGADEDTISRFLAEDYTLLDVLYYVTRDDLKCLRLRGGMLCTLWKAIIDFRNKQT

Another test deals with T3, DYRK2 (Homo sapiens, UniProt Q92630).
T3 sequence (Q92630 1-601): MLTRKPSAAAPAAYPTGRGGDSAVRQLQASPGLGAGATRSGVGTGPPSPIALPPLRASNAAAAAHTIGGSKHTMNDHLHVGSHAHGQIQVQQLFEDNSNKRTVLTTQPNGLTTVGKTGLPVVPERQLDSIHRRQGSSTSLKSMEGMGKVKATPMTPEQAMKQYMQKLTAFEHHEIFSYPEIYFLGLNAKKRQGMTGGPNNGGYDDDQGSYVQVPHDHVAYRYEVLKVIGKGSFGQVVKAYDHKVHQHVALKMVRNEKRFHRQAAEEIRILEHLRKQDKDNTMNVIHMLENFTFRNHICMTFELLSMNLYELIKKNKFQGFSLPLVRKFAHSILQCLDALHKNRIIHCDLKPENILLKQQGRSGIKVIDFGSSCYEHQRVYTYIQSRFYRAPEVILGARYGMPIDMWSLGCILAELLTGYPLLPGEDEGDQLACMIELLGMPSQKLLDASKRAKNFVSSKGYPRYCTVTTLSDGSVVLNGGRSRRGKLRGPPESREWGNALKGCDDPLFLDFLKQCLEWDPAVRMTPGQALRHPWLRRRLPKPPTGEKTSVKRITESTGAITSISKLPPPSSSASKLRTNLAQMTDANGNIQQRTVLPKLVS

MST3, sequence (Q9Y6E0 whole entry): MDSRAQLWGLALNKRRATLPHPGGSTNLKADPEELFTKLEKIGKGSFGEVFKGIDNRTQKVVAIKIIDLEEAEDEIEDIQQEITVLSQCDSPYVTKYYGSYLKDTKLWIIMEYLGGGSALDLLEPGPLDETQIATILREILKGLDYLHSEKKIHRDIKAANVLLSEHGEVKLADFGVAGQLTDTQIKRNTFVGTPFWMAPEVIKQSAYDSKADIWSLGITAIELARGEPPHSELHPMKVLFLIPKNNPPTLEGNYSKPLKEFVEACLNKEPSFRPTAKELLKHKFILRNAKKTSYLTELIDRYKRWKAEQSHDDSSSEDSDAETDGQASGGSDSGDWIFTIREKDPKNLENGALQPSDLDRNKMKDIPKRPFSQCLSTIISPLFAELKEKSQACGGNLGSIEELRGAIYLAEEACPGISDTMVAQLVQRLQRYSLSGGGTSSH
EphA4, sequence (P54764 whole entry): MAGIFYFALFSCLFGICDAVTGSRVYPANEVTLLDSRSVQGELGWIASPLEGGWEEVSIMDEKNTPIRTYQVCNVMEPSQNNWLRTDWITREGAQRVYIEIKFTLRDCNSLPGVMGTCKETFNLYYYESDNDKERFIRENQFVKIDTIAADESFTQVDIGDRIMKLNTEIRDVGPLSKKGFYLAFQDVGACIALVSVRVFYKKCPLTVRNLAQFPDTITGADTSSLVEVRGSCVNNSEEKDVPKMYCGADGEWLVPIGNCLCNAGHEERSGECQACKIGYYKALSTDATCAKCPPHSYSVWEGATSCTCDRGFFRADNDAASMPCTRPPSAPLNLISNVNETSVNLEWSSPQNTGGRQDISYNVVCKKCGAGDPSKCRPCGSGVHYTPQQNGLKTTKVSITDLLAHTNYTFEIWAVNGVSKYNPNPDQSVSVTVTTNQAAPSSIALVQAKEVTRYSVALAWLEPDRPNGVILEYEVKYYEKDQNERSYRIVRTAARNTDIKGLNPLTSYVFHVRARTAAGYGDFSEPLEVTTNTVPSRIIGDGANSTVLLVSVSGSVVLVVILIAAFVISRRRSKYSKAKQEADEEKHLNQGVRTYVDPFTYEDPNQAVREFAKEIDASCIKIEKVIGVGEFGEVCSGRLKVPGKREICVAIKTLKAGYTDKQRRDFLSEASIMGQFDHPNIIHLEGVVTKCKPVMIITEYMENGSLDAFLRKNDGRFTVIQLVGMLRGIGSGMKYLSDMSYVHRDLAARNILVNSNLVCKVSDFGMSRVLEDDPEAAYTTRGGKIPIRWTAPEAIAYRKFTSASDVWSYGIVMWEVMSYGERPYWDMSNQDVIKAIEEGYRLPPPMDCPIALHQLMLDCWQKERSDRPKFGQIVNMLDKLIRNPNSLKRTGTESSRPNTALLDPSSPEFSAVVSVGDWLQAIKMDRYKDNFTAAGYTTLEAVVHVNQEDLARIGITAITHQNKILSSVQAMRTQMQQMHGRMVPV
Erk2, sequence (P28482 whole entry): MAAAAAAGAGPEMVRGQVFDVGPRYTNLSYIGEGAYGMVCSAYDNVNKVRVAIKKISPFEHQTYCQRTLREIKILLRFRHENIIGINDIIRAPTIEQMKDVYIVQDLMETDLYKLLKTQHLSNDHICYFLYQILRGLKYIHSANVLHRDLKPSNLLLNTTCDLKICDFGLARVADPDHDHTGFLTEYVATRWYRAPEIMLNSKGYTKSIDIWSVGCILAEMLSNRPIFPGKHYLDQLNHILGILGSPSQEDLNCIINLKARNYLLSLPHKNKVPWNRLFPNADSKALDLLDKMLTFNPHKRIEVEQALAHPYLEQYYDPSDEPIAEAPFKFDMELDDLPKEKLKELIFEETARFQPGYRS
AAK1, sequence (Q2M2I8 whole entry): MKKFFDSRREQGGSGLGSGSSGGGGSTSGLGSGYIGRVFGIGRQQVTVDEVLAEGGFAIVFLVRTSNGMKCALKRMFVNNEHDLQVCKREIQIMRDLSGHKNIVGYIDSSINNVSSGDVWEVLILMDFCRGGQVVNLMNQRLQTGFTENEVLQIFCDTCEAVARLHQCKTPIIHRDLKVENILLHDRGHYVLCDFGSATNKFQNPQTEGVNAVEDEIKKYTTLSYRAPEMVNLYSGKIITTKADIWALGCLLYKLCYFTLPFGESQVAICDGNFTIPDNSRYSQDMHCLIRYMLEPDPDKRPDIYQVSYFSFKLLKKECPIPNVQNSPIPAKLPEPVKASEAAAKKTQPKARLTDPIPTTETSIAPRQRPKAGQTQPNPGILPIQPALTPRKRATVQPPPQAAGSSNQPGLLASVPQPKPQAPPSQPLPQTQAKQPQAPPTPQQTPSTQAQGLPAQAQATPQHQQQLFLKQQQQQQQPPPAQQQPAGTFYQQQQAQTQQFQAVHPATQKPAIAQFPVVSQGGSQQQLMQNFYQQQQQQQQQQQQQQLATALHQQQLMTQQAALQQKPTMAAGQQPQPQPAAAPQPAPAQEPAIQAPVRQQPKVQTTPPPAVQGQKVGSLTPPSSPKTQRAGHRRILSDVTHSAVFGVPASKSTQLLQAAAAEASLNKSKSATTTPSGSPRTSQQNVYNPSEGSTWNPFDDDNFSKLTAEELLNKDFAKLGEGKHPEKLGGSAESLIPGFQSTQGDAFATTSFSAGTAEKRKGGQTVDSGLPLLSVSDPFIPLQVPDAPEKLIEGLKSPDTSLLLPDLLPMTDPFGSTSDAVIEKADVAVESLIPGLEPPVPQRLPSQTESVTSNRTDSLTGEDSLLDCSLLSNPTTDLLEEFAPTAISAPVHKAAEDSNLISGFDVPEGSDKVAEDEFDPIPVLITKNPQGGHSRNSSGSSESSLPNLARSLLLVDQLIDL
CK1e, sequence (P49674 whole entry): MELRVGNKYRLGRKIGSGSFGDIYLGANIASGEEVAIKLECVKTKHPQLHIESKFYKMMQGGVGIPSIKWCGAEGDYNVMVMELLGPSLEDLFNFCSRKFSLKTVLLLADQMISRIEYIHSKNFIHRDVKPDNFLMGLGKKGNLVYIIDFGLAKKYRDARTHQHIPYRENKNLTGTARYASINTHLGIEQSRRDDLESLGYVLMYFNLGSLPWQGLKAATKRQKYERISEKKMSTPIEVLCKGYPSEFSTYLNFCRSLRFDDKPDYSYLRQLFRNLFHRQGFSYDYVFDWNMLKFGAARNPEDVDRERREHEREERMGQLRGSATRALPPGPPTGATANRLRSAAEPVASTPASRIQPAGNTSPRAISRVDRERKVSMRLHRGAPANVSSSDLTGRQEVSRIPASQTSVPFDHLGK

For `Cc1cccc(-c2ccc(-c3cc4cnc(Nc5ccc(C)c(O)c5)nc4n(CCCCN)c3=O)c(Cl)c2)n1` [compound 32, 8-(4-Aminobutyl)-6-(2-chloro-4-(6-methylpyridin-2-yl)phenyl)-2-((3-hydroxy-4-methylphenyl)amino)pyrido[2,3-d]pyrimidin-7(8H)-one], the “ΔTm 32” value at AAK1 was 4.0 °C; on MST2, 14.7 °C; at MST3, 15.4 °C; on EphA4, 4.6 °C; at CK1e, 7.7 °C; at MAP3K5, 12.7 °C. The “ΔTm 32” value was -1.4 °C on DYRK2 and 1.9 °C at Erk2.

Take `Cc1cccc(-c2ccc(-c3cc4cnc(Nc5ccc(O)cc5)nc4n(CCCCN)c3=O)c(Cl)c2)n1` [compound 31, 8-(4-Aminobutyl)-6-(2-chloro-4-(6-methylpyridin-2-yl)phenyl)-2-((4-hydroxyphenyl)amino) pyrido[2,3-d]pyrimidin-7(8H)-one]: the “ΔTm 31” value on AAK1 is 4.0 °C; on MST2, 14.3 °C; on MST3, 16.1 °C; at EphA4, 4.4 °C; on CK1e it was 7.5 °C; on MAP3K5, 12.3 °C. Further, the “ΔTm 31” value on DYRK2 is -0.8 °C; at Erk2 it was 1.3 °C.

With `Cc1cccc(-c2ccc(-c3cc4cnc(Nc5cc(C(F)(F)F)ccc5C)nc4n(CCCCN)c3=O)c(Cl)c2)n1` [compound 28, 8-(4-Aminobutyl)-6-(2-chloro-4-(6-methylpyridin-2-yl)phenyl)-2-((2-methyl-5-(trifluoromethyl)phenyl)amino)pyrido[2,3-d]pyrimidin-7(8H)-one], the “ΔTm 28” value at AAK1 is -0.1 °C; on MST2 it was 10.1 °C; at MST3, 12.1 °C; on EphA4, 3.4 °C; at CK1e, 4.9 °C; at MAP3K5, 12.2 °C. Besides, the “ΔTm 28” value on DYRK2 was -0.7 °C; at Erk2, 0.7 °C.

On to `Cc1cccc(-c2ccc(-c3cc4cnc(NCCCN5CCNCC5)nc4n(CCCCN)c3=O)c(Cl)c2)n1` [compound 29, 8-(4-Aminobutyl)-6-(2-chloro-4-(6-methylpyridin-2-yl)phenyl)-2-((3-(piperazin-1-yl)propyl)amino)pyrido[2,3-d]pyrimidin-7(8H)-one], for which the “ΔTm 29” value at AAK1 came out at 0.0 °C; on MST2, 9.1 °C; on MST3, 14.3 °C; on EphA4 it was 2.1 °C; on CK1e, 5.8 °C; at MAP3K5, 9.6 °C. Further, the figures for the “ΔTm 29” value at DYRK2 and on Erk2 were -0.2 °C and -0.4 °C, respectively.

`Cc1cccc(-c2ccc(-c3cc4cnc(Nc5ccc(CCCO)cc5)nc4n(CCCCN)c3=O)c(Cl)c2)n1` [compound 30, 8-(4-Aminobutyl)-6-(2-chloro-4-(6-methylpyridin-2-yl)phenyl)-2-((4-(3-hydroxypropyl)phenyl)amino)pyrido[2,3-d]pyrimidin-7(8H)-one]: the “ΔTm 30” value at AAK1 was found to be 4.1 °C; on MST2 it was 15.0 °C; at MST3, 15.5 °C; at EphA4, 3.5 °C; on CK1e it was 8.2 °C; at MAP3K5, 13.1 °C. Moreover, the “ΔTm 30” value on DYRK2 was -1.1 °C; at Erk2, 3.5 °C.

For the compound `Cc1cccc(-c2ccc(-c3cc4cnc(NCCCN5CCCC5=O)nc4n(CCCCN)c3=O)c(Cl)c2)n1` [compound 27, MR30], the “ΔTm MR30 (27)” value at AAK1 is -0.5 °C; at MST2, 5.9 °C; at MST3, 9.8 °C; on EphA4 it was 2.0 °C; on CK1e, 6.4 °C; at MAP3K5, 9.2 °C. The “ΔTm MR30 (27)” value on DYRK2 was -0.4 °C; at Erk2, 0.4 °C.
